We go through three molecules from ChEMBL document CHEMBL1147983.

Molecules are shown by their SMILES.

In test [1] the target is Epidermal growth factor receptor (Homo sapiens, UniProt P00533). Kind of test: Inhibition of EGFR.
A further test concerns the target T1, Aurora kinase A (Homo sapiens, UniProt O14965).
T1 sequence (O14965 whole entry): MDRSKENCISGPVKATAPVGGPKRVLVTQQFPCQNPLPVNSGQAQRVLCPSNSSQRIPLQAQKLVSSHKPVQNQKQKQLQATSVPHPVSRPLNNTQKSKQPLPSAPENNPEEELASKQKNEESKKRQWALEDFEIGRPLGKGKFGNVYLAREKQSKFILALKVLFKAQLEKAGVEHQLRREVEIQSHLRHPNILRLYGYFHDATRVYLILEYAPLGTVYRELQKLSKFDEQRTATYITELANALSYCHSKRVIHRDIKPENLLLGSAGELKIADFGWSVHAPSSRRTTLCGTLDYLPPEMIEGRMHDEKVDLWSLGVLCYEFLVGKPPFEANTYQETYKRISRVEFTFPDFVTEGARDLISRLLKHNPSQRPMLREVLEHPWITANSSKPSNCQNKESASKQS

Sequence of Epidermal growth factor receptor (P00533 whole entry): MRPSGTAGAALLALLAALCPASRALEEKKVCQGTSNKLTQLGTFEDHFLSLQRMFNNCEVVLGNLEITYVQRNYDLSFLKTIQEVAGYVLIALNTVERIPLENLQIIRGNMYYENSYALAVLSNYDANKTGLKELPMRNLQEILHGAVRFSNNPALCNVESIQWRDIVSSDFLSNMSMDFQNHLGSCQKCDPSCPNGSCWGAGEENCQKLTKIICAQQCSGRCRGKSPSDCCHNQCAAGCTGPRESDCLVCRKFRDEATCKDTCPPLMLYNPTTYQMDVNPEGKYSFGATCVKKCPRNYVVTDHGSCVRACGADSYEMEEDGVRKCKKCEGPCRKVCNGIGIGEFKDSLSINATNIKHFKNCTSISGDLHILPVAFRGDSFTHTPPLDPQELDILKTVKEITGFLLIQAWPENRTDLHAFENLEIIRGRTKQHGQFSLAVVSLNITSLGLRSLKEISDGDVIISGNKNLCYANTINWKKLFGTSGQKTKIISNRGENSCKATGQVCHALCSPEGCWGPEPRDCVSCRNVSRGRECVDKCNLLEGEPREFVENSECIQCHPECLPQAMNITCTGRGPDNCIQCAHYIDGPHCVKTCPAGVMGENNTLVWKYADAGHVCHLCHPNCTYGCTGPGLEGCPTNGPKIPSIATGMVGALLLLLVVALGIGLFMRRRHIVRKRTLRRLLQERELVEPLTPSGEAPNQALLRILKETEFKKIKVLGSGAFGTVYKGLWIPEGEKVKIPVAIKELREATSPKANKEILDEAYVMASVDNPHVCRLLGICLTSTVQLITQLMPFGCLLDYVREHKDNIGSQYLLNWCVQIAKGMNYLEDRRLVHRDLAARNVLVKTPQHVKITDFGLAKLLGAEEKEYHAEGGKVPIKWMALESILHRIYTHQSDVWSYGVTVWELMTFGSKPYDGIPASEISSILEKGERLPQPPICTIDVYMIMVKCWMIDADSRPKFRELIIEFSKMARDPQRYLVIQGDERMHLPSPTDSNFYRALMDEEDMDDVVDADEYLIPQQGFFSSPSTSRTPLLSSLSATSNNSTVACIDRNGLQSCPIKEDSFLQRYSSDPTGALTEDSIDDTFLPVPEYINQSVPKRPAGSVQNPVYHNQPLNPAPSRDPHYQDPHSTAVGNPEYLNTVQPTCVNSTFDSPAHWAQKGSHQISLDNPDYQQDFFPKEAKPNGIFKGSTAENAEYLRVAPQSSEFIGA

As to `O=C(Nc1cccc(Nc2ccnc(Nc3cccc(C(F)(F)F)c3)n2)c1)C1CC1`, the values for the IC50 (in test [1]; against Aurora kinase A) were > 10 µM and 0.931 µM, respectively.
For `O=C(Nc1cccc(Nc2cc(Nc3cccc(C(F)(F)F)c3)ncn2)c1)C1CC1` the same measures were 0.021 µM and > 10 µM.
In the case of `O=C(Nc1cccc(Nc2nccc(Nc3cccc(C(F)(F)F)c3)n2)c1)C1CC1` [ANILINOPYRIMIDINE1], in test [1], the IC50 (commonly the concentration needed to halve the response being measured) is > 10 µM.
